Data taken from patent US20230414565A1, “COMPOSITIONS AND METHODS FOR TREATING HEMATOLOGICAL MALIGNANCIES” (Magenta Therapeutics, Inc., priority 2022, published 2023).
Read-outs that look alike come from different tables or passages of the source. Each block holds one molecule with its values, some of them ahead of it.

Legend:
[1] = system: graft cell subsets (T cells, B cells, NK cells, TNC); conditions: cited from earlier work
CD34+ cells [2] = conditions: historical plerixafor alone data, Devine et al., Blood 2008; cited from earlier work
CD34+ cells [3] = experiment: Phase 1 clinical trial: mobilization of CD34+ cells into peripheral blood, multicolor flow cytometry
CD34+CD90+CD45RA− cells [4] = experiment: Phase 1 clinical trial: mobilization of CD34+CD90+CD45RA− cells into peripheral blood, multicolor flow cytometry
Method: (§1) The dose of MGTA-145 was one of 0.0075 mg/kg, 0.015 mg/kg, 0.03 mg/kg, 0.075 mg/kg, 0.15 mg/kg, or 0.3 mg/kg. […] The dose of MGTA-145 was one of 0.015 mg/kg, 0.03 mg/kg, 0.075 mg/kg, or 0.15 mg/kg. […] The dose of MGTA-145 was one of 0.03 mg/kg or 0.075 mg/kg.
(§2) Mobilization of white blood cells (WBCs), neutrophils, lymphocytes, basophils, and eosinophils was quantified by automated hematology analyzer.

[5] = system: hematopoietic stem and progenitor cell mobilization; conditions: U.S. Pat. Nos. 6,080,398 and 6,447,766; cited from earlier work
MMP-9 = experiment: Phase 1 clinical trial: plasma MMP-9 and TIMP-1, sandwich immunoassay; type: in vivo, human; conditions: MGTA-145 monotherapy, all six doses
Method: (§3) Additionally, blood samples were analyzed by multicolor flow cytometry to quantify changes in expression of neutrophil activation markers such as L-selectin, CD11b, CD18, and CD66. Additionally, matrix metalloproteinase 9 (MMP-9), a neutrophil protease believed to mediate mobilization in response to MGTA-145, as well as its cognate inhibitor, TIMP-1, were quantified in plasma samples collected at the same time points by sandwich immunoassay.

[6] = system: neutrophil activation markers (L-selectin, CD11b, CD18, CD66); experiment: Phase 1 clinical trial: neutrophil activation markers, multicolor flow cytometry; type: in vivo, human; conditions: MGTA-145 monotherapy
Method: as §3

CXCR2 = molecular target: T1, CXCR2 (Homo sapiens, UniProt P25025); experiment: Phase 1 clinical trial: CXCR2 expression on peripheral blood neutrophils; type: in vivo
T1 construct: endogenous in cells; host or cells: peripheral blood neutrophils of trial subjects
T1 sequence (P25025 1-360): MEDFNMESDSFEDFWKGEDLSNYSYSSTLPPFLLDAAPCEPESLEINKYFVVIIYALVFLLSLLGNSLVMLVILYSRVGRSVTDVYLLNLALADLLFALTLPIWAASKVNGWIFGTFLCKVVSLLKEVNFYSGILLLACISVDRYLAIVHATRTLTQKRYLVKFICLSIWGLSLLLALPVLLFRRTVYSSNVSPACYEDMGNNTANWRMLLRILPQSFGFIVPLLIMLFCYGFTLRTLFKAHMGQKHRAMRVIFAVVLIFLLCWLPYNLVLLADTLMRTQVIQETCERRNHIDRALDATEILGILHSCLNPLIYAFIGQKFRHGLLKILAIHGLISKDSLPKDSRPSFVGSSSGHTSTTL

CD45.2 mice = experiment: Primary and secondary transplantation of mobilized mouse cells at limit dilution (CRU); type: in vivo; conditions: FIG. 25, right panel; versus the other cohorts
From the text: Mice (CD45.1) were mobilized according to the scheme shown in FIG. 24 and mobilized cells transplanted into CD45.2 mice at limit dilution.

[7] = Phase 1 clinical trial: treatment emergent adverse events; conditions: Part A; MGTA-145 0.0075-0.3 mg/kg, n = 24
CD34+ cells [8] = experiment: Phase 1 Part D: apheresis collection yield of CD34+ cells
Method: as §1
(§4) The table documents the body weight of each subject, the total CD34+ cells that were obtained through the apheresis procedure, the normalized CD34+ cells/kg of body weight, and the percentage of CD34+ cells that were CD90+CD45RA−.

CD34+CD90+CD45RA− cells [9] = experiment: Phase 1 Part D: apheresis collection of CD34+CD90+CD45RA− cells; conditions: for CD90+/kg (CD34+CD90+CD45RA− cells), mean / CD90+/kg (CD34+CD90+CD45RA− cells), median: 2 h stagger after plerixafor; for CD90+ (% of CD34+): 2 h stagger after plerixafor (Table 13)
Method: as §1, §4

neutrophils = experiment: Phase 1 clinical trial: mobilization of neutrophils, automated hematology analyzer; conditions: MGTA-145 monotherapy
Method: as §1, §2

white blood cells (WBCs) = experiment: Phase 1 clinical trial: mobilization of white blood cells, automated hematology analyzer; conditions: MGTA-145 monotherapy
Method: as §1, §2

[10] = system: neutrophil activation markers (L-selectin, CD11b, CD18, CD66); conditions: 5 days of G-CSF; Falanga et al., Blood 1999; cited from earlier work
[11] = G-CSF; Pulsiper et al. (2009) Blood; cited from earlier work
[12] = Chen et al., 2019, 2 LP for plerixafor (N = 50+), 1 LP for G-CSF (N = 112+)
[13] = Devine et al, 2008, yield of 1 LP, plerixafor N = 24, G-CSF N = 8
[14] = Part B, pooled placebo + plerixafor on Day 1
[15] = Part C, pooled placebo + plerixafor on Day 1
[16] = Pooled B + C, pooled placebo + plerixafor on Day 1
[17] = plerixafor alone, MGTA-145 dose 0
[18] = 0.03 mg/kg MGTA-145 and plerixafor (staggered 2 hour)
[19] = higher doses (0.075, 0.15, 0.3 mg/kg), 2 hours post administration
[20] = lower doses (0.0075, 0.015, 0.03 mg/kg), between 1 and 2 hours post administration
[21] = MGTA-145 monotherapy 0.03 mg/kg
[22] = MGTA-145 monotherapy, the other doses
[23] = Part A, MGTA-145 on Day 1, 0.03 mg/kg
[24] = Part A, MGTA-145 on Day 1, 0.3 mg/kg
[25] = G-CSF, N = 78 healthy donors, Chaidos et al, Blood 2012

Molecule: c1cc(CN2CCCNCCNCCCNCC2)ccc1CN1CCCNCCNCCCNCC1 [plerixafor, 1,1′-[1,4-phenylenebis(methylene)]-bis-1,4,8,11-tetra-azacyclotetradecane]
Graft CD3+, median [1, 12]: 6e+08 kg⁻¹ | Graft CD4+, median [1, 12]: 3.6e+08 kg⁻¹ | Graft CD8+, median [1, 12]: 2.2e+08 kg⁻¹ | Graft CD19+, median [1, 12]: 1.5e+08 kg⁻¹ | Graft CD34+, median [1, 12]: 4.7e+06 kg⁻¹ | Graft CD56+, median [1, 12]: 4e+07 kg⁻¹ | Graft CD3+, median [1, 13]: 4.6e+08 kg⁻¹ | Graft CD4+, median [1, 13]: 3.2e+08 kg⁻¹ | Graft CD8+, median [1, 13]: 1.3e+08 kg⁻¹ | Graft CD34+, median [1, 13]: 2.9e+06 kg⁻¹ | Graft CD56+, median [1, 13]: 3e+07 kg⁻¹ | Graft CD19+, median ([1]; Devine et al, 2008, yield of 1 LP, plerixafor N = 24): 1e+08 kg⁻¹ | Patients with peak CD34+ ≥20 cells/μL (CD34+ cells [2]): 28% | Patients with peak CD34+ ≥40 cells/μL (CD34+ cells [2]): 4% | Peak CD34+ (#/μL) Median (CD34+ cells [3]; Part B, plerixafor alone, MGTA-145 dose 0): 26 #/μL | Peak CD34+ (#/μL) Median (CD34+ cells [3]; [14]): 26 #/μL | Percent ≥20/μL peak CD34+ (CD34+ cells [3]; [14]): 64% | Peak CD34+ (#/μL) Median (CD34+ cells [3]; Part C first day, plerixafor alone, MGTA-145 dose 0): 18 #/μL | Peak CD34+ (#/μL) Median (CD34+ cells [3]; [15]): 18 #/μL | Percent ≥20/μL peak CD34+ (CD34+ cells [3]; [15]): 0% | Percent ≥20/μL peak CD34+ (CD34+ cells [3]; Part C, pooled placebo + plerixafor on Day 2): 50% | Peak CD34+ (#/μL) Median (CD34+ cells [3]; Pooled B + C, plerixafor alone, MGTA-145 dose 0): 20 #/μL | Peak CD34+ (#/μL) Median (CD34+ cells [3]; [16]): 23 #/μL | Percent ≥20/μL peak CD34+ (CD34+ cells [3]; [16]): 56% | Tmax (time of the peak CD34+ level) Median (CD34+ cells [3]; plerixafor alone): 8 h | Peak CD34+/μL (FC vs. baseline) Median (CD34+ cells [3]; [17]): 15 | Peak CD34+/μL Median (CD34+ cells [3]; [17]): 20 µL⁻¹ | Peak CD34+CD90+CD45RA− mobilization (median) (CD34+CD90+CD45RA− cells [4]; plerixafor alone): 8 cells/μL

Molecule: Gro-β T N65D: Gro-β T variant with aspartic acid in place of asparagine at position 65
Potency of hematopoietic stem and progenitor cell mobilization [5]: potency that is substantially greater than that of Gro-β T

CXCR2 expression recovery prior to the second dose (CXCR2; MGTA-145 0.07 mg/kg, staggered dosing, two consecutive days): ~80 % of baseline
Molecule: MGTA-145: CXCR2 agonist; truncated Gro-β with deletion of the first four N-terminal amino acids (SEQ ID NO: 2)
Molar ratio MMP-9:TIMP-1 (MMP-9): rapid increase 30 minutes post-administration | Plasma levels of MMP-9 (MMP-9): increased sharply within 30 minutes post-administration | Change relative to baseline of neutrophil activation marker CD66 ([6]; all doses except the highest (0.3 mg/kg)): < 2 fold | Change relative to baseline of neutrophil activation marker L-selectin ([6]; all six doses): < 2 fold | Change relative to baseline of neutrophil activation markers CD11b and CD18 ([6]; all six doses): < 2 fold | CXCR2 on peripheral neutrophils (CXCR2; MGTA-145 monotherapy): rapid downregulation of its target receptor, CXCR2, on peripheral neutrophils, followed by recovery over 24 hours | Engraftment rates, secondary transplantation (CD45.2 mice): vastly improved engraftment rates | Potency of hematopoietic stem and progenitor cell mobilization [5]: potency superior to that of Gro-β by multiple orders of magnitude | Back pain/Musculoskeletal pain [7]: 19 n (%) | Subjects with any drug related TEAE [7]: 19 n (%) | CD34+/kg, median (CD34+ cells [8]; [18]): 4.3 ×10^6 cells | Total CD34+ Yield, median (CD34+ cells [8]; [18]): 321 (239-500) ×10^6 cells | CD34+/kg, mean (CD34+ cells [8]; MGTA-145 0.03 mg/kg, 2 h stagger after plerixafor): 4.1 ×10^6 | CD90+/kg (CD34+CD90+CD45RA− cells), mean (CD34+CD90+CD45RA− cells [9]; MGTA-145 0.03 mg/kg): 1.3 ×10^6 | CD90+/kg (CD34+CD90+CD45RA− cells), median (CD34+CD90+CD45RA− cells [9]; MGTA-145 0.03 mg/kg): 1.5 ×10^6 | CD90+ (% of CD34+) (CD34+CD90+CD45RA− cells [9]; MGTA-145 0.03 mg/kg, 0.03 mg/kg): 31% | CD90+/kg (CD34+CD90+CD45RA− cells), mean (CD34+CD90+CD45RA− cells [9]; MGTA-145 […]): 1.4 ×10^6 | CD90+/kg (CD34+CD90+CD45RA− cells), median (CD34+CD90+CD45RA− cells [9]; MGTA-145 […]): 1.2 ×10^6 | CD90+ (% of CD34+) (CD34+CD90+CD45RA− cells [9]; MGTA-145 […], […]): 37% | Initial plateau of neutrophil mobilization (neutrophils; [19]): 5-8 ×10^3 cells/μL | Peak mobilization of neutrophils (neutrophils; [20]): 13-15 ×10^3 cells/μL | Initial plateau of WBC mobilization (white blood cells (WBCs); [19]): 6-10 ×10^3 cells/μL | Peak mobilization of WBCs (white blood cells (WBCs); [20]): 15-17 ×10^3 cells/μL | Fold increase of CD34+ cells (CD34+ cells [3]; [21]): 7 fold | Peak concentration of CD34+ cells (CD34+ cells [3]; [21]): ~10 cells/μL | Time of peak CD34+ mobilization post administration (CD34+ cells [3]; MGTA-145 monotherapy, single dose, across the six doses 0.0075-0.3 mg/kg): about 30 minutes | Fold increase of CD34+ cells (CD34+ cells [3]; [22]): 2-3 fold | Peak concentration of CD34+ cells (CD34+ cells [3]; MGTA-145 monotherapy, the other doses (0.0075, 0.015, 0.075, 0.15, 0.3 mg/kg)): ~5 cells/μL | Peak CD34+ (#/μL) Median (CD34+ cells [3]; [23]): 12 #/μL | Percent ≥20/μL peak CD34+ (CD34+ cells [3]; [23]): 0% | Peak CD34+ (#/μL) Median (CD34+ cells [3]; [24]): 3 #/μL | Percent ≥20/μL peak CD34+ (CD34+ cells [3]; [24]): 0% | Fold increase of CD34+CD90+CD45RA− cells (CD34+CD90+CD45RA− cells [4]; [21]): ~8.3 fold | Peak concentration of CD34+CD90+CD45RA− cells (CD34+CD90+CD45RA− cells [4]; [21]): ~3 cells/μL | Time of peak CD34+CD90+CD45RA− mobilization post administration (CD34+CD90+CD45RA− cells [4]; MGTA-145 monotherapy, six doses): 30 min | Fold increase of CD34+CD90+CD45RA− cells (CD34+CD90+CD45RA− cells [4]; [22]): 2-3.5 fold | Peak concentration of CD34+CD90+CD45RA− cells (CD34+CD90+CD45RA− cells [4]; [22]): 1-1.6 cells/μL

B1: G-CSF: standard mobilization agent, five days of Filgrastim (G-CSF) (protein, UniProt P09919 31-207, looked up)
Granulocyte …: TPLGPASSLPQSFLLKCLEQVRKIQGDGAALQEKLVSECATYKLCHPEELVLLGHSLGIPWAPLSSCPSQALQLAGCLSQLHSGLFLYQGLLQALEGISPELGPTLDTLQLDVADFATTIWQQMEELGMAPALQPTQGAMPAFASAFQRRAGGVLVASHLQSFLEVSYRVLRHLAQP
modifications: filgrastim
Increase in neutrophil activation markers [10]: ~2.7 fold | Tolerability [11]: Majority with bone pain, | Graft CD3+, median [1, 12]: 2.5e+08 kg⁻¹ | Graft CD4+, median [1, 12]: 1.5e+08 kg⁻¹ | Graft CD8+, median [1, 12]: 7e+07 kg⁻¹ | Graft CD19+, median [1, 12]: 5e+07 kg⁻¹ | Graft CD34+, median [1, 12]: 4.2e+06 kg⁻¹ | Graft CD56+, median [1, 12]: 1e+07 kg⁻¹ | Graft CD3+, median [1, 13]: 1.3e+08 kg⁻¹ | Graft CD4+, median [1, 13]: 1.1e+08 kg⁻¹ | Graft CD8+, median [1, 13]: 4e+07 kg⁻¹ | Graft CD34+, median [1, 13]: 4.2e+06 kg⁻¹ | Graft CD56+, median [1, 13]: 2e+07 kg⁻¹ | TNC/kg donor weight, median (range) ([1]; G-CSF, N = 40 healthy donors, Singhal et al, BMT 2000): 7.2 (3.2-14.0) ×10^8 cells | Frequency of CD3+ T cells in graft, median [1, 25]: 45.3 % of CD45+ | Frequency of CD4+ T cells in graft, median [1, 25]: 29.8 % of CD45+ | Frequency of CD8+ T cells in graft, median [1, 25]: 11.8 % of CD45+ | Frequency of CD19+ B cells in graft, median [1, 25]: 10.5 % of CD45+ | Frequency of CD56+ NK cells in graft, median [1, 25]: 3.2 % of CD45+ | Frequency of Tregs in graft, median [1, 25]: 3.5 % of CD4+ T cells | Frequency of iNKT cells in graft, median [1, 25]: 0.04 % of CD3+
